Here are results for 14 compounds from patent publication US7173047B2, “Benzo (f) insoindol derivatives and their use as ep4 receptor ligands” (Glaxo Group Limited, priority 2000, dated 2007).

Assay [1] has as its target T1, human EP4 receptor (Homo sapiens, UniProt P35408). The experiment in a line: Human EP4 Scintillation Proximity Assay ([3H]-prostaglandin E2 radioligand binding). Also on record: expressed in transfected cells; host or cells: CHO cells infected with Semliki Forest Virus (SFV-1) particles; membranes. The conditions noted are these: membranes of CHO cells expressing human EP4 receptor; 1.25 nM [3H]-prostaglandin E2; pKi from IC50 by Cheng-Prusoff; read-out: pKi at EP4 receptors (converted). The text has this: Quantification of radioligand binding by scintillation proximity assay (SPA) is a long-established principle. Briefly, the affinity of compounds for a receptor is assesssed by the specific competition between known quantities of radiolabelled ligand and compound for that receptor. Increasing concentrations of compound reduce the amount of radiolabel that binds to the receptor. This gives rise to a diminshing scintillation signal from SPA beads coated with membranes that bear the receptor. The signal may be detected with a suitable scintillation counter and the data generated may be analysed with suitable curve-fitting software.
The human EP4 SPA assay (hereafter referred to as ‘the assay’) utilises membranes prepared from Chinese Hamster Ovary (CHO cells) infected with Semilki Forest Virus (SFV). Genetically engineered SFV-1 viral particles containing the genetic sequence of the human EP4 receptor were used to infect CHO cells resulting in expression of the receptor protein in cellular membranes. Cells washed free of media are homogenised in a pH-buffered medium containing peptidase inhibitors. A suitable buffer is of the following composition: 50 mM HEPES, 1 mM EDTA, 25 μg/ml bacitracin, 100 μM leupeptin, 1 mM PMSF, 2 μM Pepstatin A, pH adjusted to 7.4 with KOH. Following removal of cell debris by a low-speed centrifugation, a pellet of membranes is prepared by a high-speed (48000 g) centrifugation of the resulting supernatant. Membrane suspensions such as that described may be stored at −80° C. until used.
For assay, membranes expressing human EP4 receptors are diluted in a pH-buffered medium and mixed with SPA beads coated with a suitable substance to facilitate the adhesion of membranes to the beads. The concentrations of membrane protein and SPA beads chosen should result in SPA binding signal of at least 300 corrected counts per minute (CCPM) when tritiated radioligand at a concentration close to its Kd (affinity value) is combined with the mixture. Non-specific binding (nsb) may be determined by competition between the radiolabelled ligand and a saturating concentration of unlabelled ligand. In order to quantify the affinity of EP4 receptor ligands, compounds are diluted in a stepwise manner across the wells of a 96-well plate. Radioligand, compound, and unlabelled ligand are then added to a 96-well plate suitable for the measurement of SPA binding signals prior to the addition of bead/membrane mixture to initiate the binding reaction. Equilibrium may be achieved by incubation at room temperature for 120 minutes prior to scintillation counting. The data so generated may be analysed by means of a computerised curve-fitting routine in order to quantify the concentration of compound that displaces 50% of the specific radioligand binding (IC50). The affinity (pKi) of the compound may be calculated from the IC50 by application of the Cheng-Prusoff correction. Suitable reagents and protocols are: reaction buffer containing 50 mM HEPES, 10 mM MgCl2, pH adjusted to 7.4 with KOH; SPA beads coated with wheatgerm agglutinin; 1.25 nM [^3H]-prostaglandin E2 as radioligand; 10 μM prostaglandin E2 as unlabelled ligand; a three-fold dilution series of compound starting at 10 μM and ending at 0.3 nM is adequate.

Assay [2] has as its target T1, human EP4 receptor. The experiment in a line: [125I]cAMP Scintillation Proximity Assay (EP4 antagonist assay, HEK-293 cells expressing recombinant human EP4 receptor). In kind it is cell-based. Further details: expressed in transfected cells. The following applies: method of Arunlakshana and Schild, read-out: pKb (antagonist affinity) (converted). As to the method:
The CAMP assay utilises HEK-293 cells expressing the recombinant human EP4 receptor, obtained from Receptor Biology, Inc. Beltsville, Md., USA. The cells were cultured in Dulbecco's Modified Eagle Medium—HAM F12 mix (DMEM-F12), containing 10% heat inactivated-foetal bovine serum (FBS) and 2 mM L-glutamine. The cells were either passaged into fresh medium or used in an assay once 90% confluency as determined visually had been achieved.
The cells were harvested by treatment with Versene, re-suspended in fresh culture medium and plated out to yield approximately 10,000 cells per well of a 96-well plate for overnight culture in culture medium additionally supplemented with 3 μM indomethacin. For assay, the culture medium was replaced with assay medium (DMEM-F12 containing 300 μM isobutylmethylxanthine (IBMX) and 3 μM indomethacin) and incubated for 30 minutes. Following this, antagonist was then added at various concentrations such that an entire agonist concentration-effect curve could be obtained in the presence of a single concentration of the antagonist. […] The amount of cAMP in each well was then determined by [^125I]cAMP scintillation proximity assay using a proprietary kit, obtained from Amersham, Buckinghamshire, UK, and according to the manufacturers instructions.
Data from cAMP assays were expressed as pmol CAMP per well. […]

T1 sequence (P35408 whole entry): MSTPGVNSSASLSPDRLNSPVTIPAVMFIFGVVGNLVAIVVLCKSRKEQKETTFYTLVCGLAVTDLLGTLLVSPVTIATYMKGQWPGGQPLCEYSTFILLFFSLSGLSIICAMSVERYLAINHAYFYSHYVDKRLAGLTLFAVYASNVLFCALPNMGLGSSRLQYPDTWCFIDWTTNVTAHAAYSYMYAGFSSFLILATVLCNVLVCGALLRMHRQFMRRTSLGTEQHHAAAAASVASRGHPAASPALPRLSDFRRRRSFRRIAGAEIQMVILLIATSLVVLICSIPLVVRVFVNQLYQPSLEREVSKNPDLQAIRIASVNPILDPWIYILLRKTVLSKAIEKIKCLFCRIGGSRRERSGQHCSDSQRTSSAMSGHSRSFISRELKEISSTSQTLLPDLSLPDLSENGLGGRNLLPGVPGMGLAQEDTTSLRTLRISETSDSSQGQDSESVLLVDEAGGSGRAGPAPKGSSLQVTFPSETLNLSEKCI

As for `CCOc1c2c(c(OCC)c3ccccc13)C(=O)N(c1ccc(CC(=O)NS(=O)(=O)c3cccnc3)cc1)C2` [Example 30], the Ki on human EP4 receptor [1] is at most 100 nM.
As for `CCOc1c2c(c(OCC)c3ccccc13)C(=O)N(c1ccc(CC(=O)NS(=O)(=O)c3ccc4ccccc4c3)cc1)C2` [Example 37], the Ki at human EP4 receptor [1] is at most 100 nM.
Take `CCOC(=O)CS(=O)(=O)NC(=O)Cc1ccc(N2Cc3c(c(OCC)c4ccccc4c3OCC)C2=O)cc1` [Example 34]: the Ki at human EP4 receptor [1] was at most 100 nM.
The same measure, in the same setting: under `CCOc1c2c(c(OCC)c3ccccc13)C(=O)N(c1ccc(CC(=O)NS(=O)(=O)c3cccc(Br)c3)cc1)C2` [Example 10] stands at most 100 nM; under `CCOc1c2c(c(OCC)c3ccccc13)C(=O)N(c1ccc(CC(=O)NS(=O)(=O)c3ccccc3C)cc1)C2` [Example 4], at most 100 nM; under `CCOc1c2c(c(OCC)c3ccccc13)C(=O)N(c1ccc(CC(=O)NS(=O)(=O)c3cccc(Cl)c3)cc1)C2=O` [Example 16], at most 100 nM.
The same measure, in the same setting: under `CCOc1c2c(c(OCC)c3ccccc13)C(=O)N(c1ccc(CC(=O)NS(=O)(=O)c3ccccc3C)cc1)C2=O` [Example 14] stands at most 100 nM.
Still for that read-out and setting: the same measure for `CCOc1c2c(c(OCC)c3ccccc13)C(=O)N(c1ccc(CC(=O)NS(=O)(=O)c3cccc(OC)c3)cc1)C2` [Example 13]: at most 100 nM.
Turning to `CCOc1c2c(c(OCC)c3ccccc13)C(=O)N(c1ccc(CC(=O)NS(=O)(=O)c3ccc(F)cc3)cc1)C2` [Example 1, N-{[4-(4,9-diethoxy-1-oxo-1,3-dihydro-2H-benzo[f]isoindol-2-yl)phenyl]acetyl}-4-fluorobenzenesulfonamide], at human EP4 receptor [1], the Ki was at most 100 nM. Besides, the Kb at human EP4 receptor [2] is at most 100 nM.
With `CCOc1c2c(c(OCC)c3ccccc13)C(=O)N(c1ccc(CC(=O)NS(=O)(=O)c3cccs3)cc1)C2` [Example 35], at human EP4 receptor [1], the Ki was at most 100 nM.
As to `CCOc1c2c(c(OCC)c3ccccc13)C(=O)N(c1ccc(CC(=O)NS(=O)(=O)c3ccccc3)cc1)C2` [Example 3, N-{2-[4-(4,9-diethoxy-1-oxo-1,3-dihydro-2H-benzo[f]isoindol-2-yl)phenyl]acetyl}benzenesulfonamide], the Ki at human EP4 receptor [1] is at most 100 nM. Besides, the Kb on human EP4 receptor [2] was at most 100 nM.
For the compound `CCOc1c2c(c(OCC)c3ccccc13)C(=O)N(c1ccc(CC(=O)NS(=O)(=O)c3cc(Br)ccc3OC)cc1)C2` [Example 12], the Ki on human EP4 receptor [1] was at most 100 nM.
Same read-out and setting: the same measure for `CCOc1c2c(c(OCC)c3ccccc13)C(=O)N(c1ccc(CC(=O)NS(=O)(=O)c3ccc(C)cc3OC)cc1)C2` [Example 9]: at most 100 nM.
Same read-out and setting: under `CCOc1c2c(c(OCC)c3ccccc13)C(=O)N(c1ccc(CC(=O)NS(=O)(=O)c3ccccc3)cc1)C2=O` [Example 15] stands at most 100 nM.
